Laboratory results: the CheMixHub drug solubility set

Test: xn = mol fraction of the nth substance listed, in the solute-free solvent

Nc1ncn(C2OC(CO)C(O)C2O)c(=O)n1 (stereo not given) + O + CCCO
solubility (g/100 g solution)
Settings	278.15 K	283.15 K	288.15 K	293.15 K	298.15 K	303.15 K	308.15 K	313.15 K	318.15 K
x2 = 0.4546	0.0722	0.0869	0.104	0.124	0.149	0.177	0.208	0.241	0.279
x2 = 0.6897	0.165	0.201	0.249	0.302	0.359	0.424	0.49	0.562	0.635
x2 = 0.8334	0.298	0.368	0.448	0.54	0.637	0.744	0.852	0.965	1.07
x2 = 0.9303	0.488	0.59	0.72	0.861	1.01	1.17	1.33	1.49	1.66

Nc1cccc2c1CN(C1CCC(=O)NC1=O)C2=O (stereo not given) + CC#N + CO
solubility (g/100 g solution)
Settings	273.15 K	278.15 K	283.15 K	288.15 K	293.15 K	298.15 K	303.15 K	308.15 K	313.15 K	318.15 K
x2 = 0.1633	0.557	0.585	0.618	0.646	0.686	0.727	0.771	0.821	0.871	0.922
x2 = 0.3423	0.674	0.696	0.729	0.767	0.805	0.849	0.89	0.935	0.98	1.03
x2 = 0.5394	0.771	0.811	0.855	0.901	0.948	0.997	1.05	1.1	1.16	1.22
x2 = 0.7574	0.653	0.682	0.713	0.752	0.794	0.84	0.89	0.942	0.996	1.05

CC1=NNC(=O)N(N=Cc2cccnc2)C1 + C1COCCO1 + CC(C)O
solubility (g/100 g solution)
Settings	288.15 K	293.15 K	298.15 K	303.15 K	308.15 K	313.15 K	318.15 K
x2 = 0.1457	0.106	0.125	0.147	0.169	0.197	0.227	0.261
x2 = 0.3126	0.11	0.127	0.149	0.173	0.2	0.229	0.263
x2 = 0.5057	0.113	0.132	0.154	0.176	0.202	0.233	0.268
x2 = 0.7318	0.116	0.135	0.156	0.179	0.206	0.235	0.27

CC1=NNC(=O)N(N=Cc2cccnc2)C1 + CN1CCCC1=O + CC(C)O
solubility (g/100 g solution)
Settings	278.15 K	283.15 K	288.15 K	293.15 K	298.15 K	303.15 K	308.15 K	313.15 K	318.15 K
x2 = 0.1316	0.161	0.188	0.221	0.258	0.3	0.347	0.402	0.461	0.529
x2 = 0.2878	0.235	0.273	0.319	0.37	0.429	0.494	0.57	0.652	0.746
x2 = 0.4763	0.292	0.339	0.395	0.457	0.529	0.608	0.701	0.801	0.914
x2 = 0.708	0.333	0.386	0.449	0.519	0.601	0.689	0.794	0.906	1.03

Nc1ncc(Br)nc1Br + CC(O)CO + O
solubility (g/100 g solution)
Settings	278.15 K	283.15 K	288.15 K	293.15 K	298.15 K	303.15 K	308.15 K	313.15 K	318.15 K	323.15 K
x2 = 0.02564	0.0095	0.0115	0.0136	0.016	0.0185	0.0208	0.0236	0.0266	0.0296	0.0328
x2 = 0.0559	0.0197	0.0236	0.0277	0.0324	0.0372	0.0418	0.0471	0.0527	0.0583	0.0644
x2 = 0.09214	0.0333	0.0398	0.0466	0.0542	0.0622	0.0696	0.0781	0.0872	0.0963	0.106
x2 = 0.1364	0.0486	0.0576	0.0678	0.0785	0.0902	0.101	0.113	0.126	0.139	0.154
x2 = 0.1915	0.0614	0.0724	0.0858	0.0998	0.115	0.13	0.147	0.163	0.18	0.2
x2 = 0.2621	0.0735	0.0873	0.103	0.12	0.138	0.158	0.176	0.197	0.218	0.244
x2 = 0.3559	0.0818	0.0972	0.116	0.134	0.156	0.178	0.201	0.225	0.251	0.281
x2 = 0.4865	0.0875	0.105	0.125	0.146	0.17	0.196	0.219	0.246	0.276	0.307
x2 = 0.6806	0.0874	0.104	0.124	0.147	0.171	0.196	0.224	0.252	0.281	0.316
